Assay results published in patent US20090311237A1, “Combination therapy using a soluble hyaluronidase and a bisphosphonate” (priority 2008, published 2009).
Where “and” joins values, the source holds several entries; their conditions need not be identical. Identical values can stand only once. Like-named read-outs stand apart in the source and are kept apart here.

Experiment: Phase 1 Stage 1 clinical pharmacokinetics of SC ZA co-administered with rHuPH20
Format: in vivo, human
Design: key to Mean Conc. / Median Conc.: BLQ = blow limit for quantitation
Settings: serum, serum; for MAT: subcutaneous, 100 mL, 24000 Units rHuPH20, read-out: MAT (mean absorption time = SC MRT − IV MRT); for half-life: read-out: T½ λz (converted)
Experimental: A pharmacokinetic study of zoledronic acid (ZA) co-administered with rHuPH20 in human subjects was conducted. The primary objective of the study was to determine the bioavailability of zoledronic acid dosed via subcutaneous (SC) co-administration with human recombinant hyaluronidase PH20 (rHuPH20). […] The patients were administered the prescribed dosage formulations as follows: Cohorts 1-5 were administered a single subcutaneous infusion in a dosage volume of 100 ml at a rate of 3 mL/min. […] The dosing solution is administered via needle or catheter into the SC space of the left anterior thigh (midway between the anterior iliac crest and the cephalad border of the patella). For cohorts 1-5, the dosing solutions were administered by a controlled rate infusion pump at approximately 3 mL/minute. […] The dosing solutions were administered by syringe push bolus injection. […] Serum concentration of ZA was determined using a qualified LC-MS-MS assay after derivatization with diazomethane (Zhu, L S et al. (2006) Rapid Commun. […] The assay range was from 2.0 to 400 ng/mL with a lower limit of quantitation (LLOQ) at 2.0 ng/mL. […] Non-compartmental analysis was used for derivation of primary and secondary pharmacokinetic (PK) parameters. […] Summary statistics (mean, standard deviation, and median) were calculated using JMP or Microsoft Excel.

[1] = ZA 0.25 mg SC infusion + 24000 Units rHuPH20, 12 h post infusion, n=3
[2] = ZA 0.25 mg SC infusion + 24000 Units rHuPH20, 24 h post infusion, n=3
[3] = ZA 0.25 mg SC infusion + 24000 Units rHuPH20, 48 h post infusion, n=3

SMILES: O=P(O)(O)C(O)(Cn1ccnc1)P(=O)(O)O [ZA, 1-hydroxy-2-(1H-imidazol-1-yl)ethylidene-1,1-bisphosphonic acid]
- concentration at 6 h (human, sc, ZA 5 mg SC infusion + 24000 Units rHuPH20, 6 h post infusion, n=3, read-out: Median Conc.): 22.3 ng/mL
- concentration at 8 h (human, sc, ZA 5 mg SC infusion + 24000 Units rHuPH20, 8 h post infusion, individual subjects, read-out: Zoledronic Acid Concentration): 9.44 ng/mL
- concentration at 8 h (human, sc, ZA 5 mg SC infusion + 24000 Units rHuPH20, 8 h post infusion, n=3, read-out: Mean Conc.): 11 ng/mL
- concentration at 8 h (human, sc, ZA 5 mg SC infusion + 24000 Units rHuPH20, 8 h post infusion, n=3, read-out: Median Conc.): 11 ng/mL
- concentration at 12 h (human, sc, ZA 5 mg SC infusion + 24000 Units rHuPH20, 12 h post infusion, individual subjects, read-out: Zoledronic Acid Concentration): 3.91 ng/mL
- concentration at 12 h (human, sc, ZA 5 mg SC infusion + 24000 Units rHuPH20, 12 h post infusion, n=3, read-out: Mean Conc.): 4.51 ng/mL
- concentration at 12 h (human, sc, ZA 5 mg SC infusion + 24000 Units rHuPH20, 12 h post infusion, n=3, read-out: Median Conc.): 4.61 ng/mL
- concentration at 24 h (human, sc, ZA 5 mg SC infusion + 24000 Units rHuPH20, 24 h post infusion, individual subjects, read-out: Zoledronic Acid Concentration): 2.15 ng/mL
- concentration at 24 h (human, sc, ZA 5 mg SC infusion + 24000 Units rHuPH20, 24 h post infusion, n=3, read-out: Mean Conc.): 2.45 ng/mL
- concentration at 24 h (human, sc, ZA 5 mg SC infusion + 24000 Units rHuPH20, 24 h post infusion, n=3, read-out: Median Conc.): 2.23 ng/mL
- concentration at 48 h (human, sc, ZA 5 mg SC infusion + 24000 Units rHuPH20, 48 h post infusion, individual subjects, read-out: Zoledronic Acid Concentration): 1.28 ng/mL
- concentration at 48 h (human, sc, ZA 5 mg SC infusion + 24000 Units rHuPH20, 48 h post infusion, n=3, read-out: Mean Conc.): 1.55 ng/mL
- concentration at 48 h (human, sc, ZA 5 mg SC infusion + 24000 Units rHuPH20, 48 h post infusion, n=3, read-out: Median Conc.): 1.63 ng/mL
- MAT (human, 0.5 mg, ZA 0.5 mg SC, individual subjects): 0.96 h
- MAT (human, 1 mg, ZA 1 mg SC, individual subjects): 1.68 h
- half-life (human, Subj 1, ZA 0.0045 mg/kg SC, inf 0.554 hr, PH20 23928 U): 1.88 h
- half-life (human, Subj 8, ZA 0.0032 mg/kg SC, inf 0.531 hr, PH20 22944 U): 3.09 h
- half-life (human, Subj 11, ZA 0.0033 mg/kg SC, inf 0.554 hr, PH20 23928 U): 2.2 h
- half-life (human, Subj 21, ZA 0.0066 mg/kg SC, inf 0.556 hr, PH20 24000 U): 2.27 h
- half-life (human, Subj 29, ZA 0.0339 mg/kg SC, inf 0.556 hr, PH20 24000 U): 8.7 h
- half-life (human, Subj 32, ZA 0.0350 mg/kg SC, inf 0.556 hr, PH20 24000 U): 22 h
- half-life (human, Subj 37, ZA 0.0791 mg/kg SC, inf 0.556 hr, PH20 24000 U): 23.4 h
- half-life (human, Subj 38, ZA 0.0706 mg/kg SC, inf 0.554 hr, PH20 23952 U): 24.4 h
- half-life (human, Subj 46, ZA 0.0877 mg/kg SC, inf 0.276 hr, PH20 12000 U): 20.8 h
- half-life (human, Subj 71, ZA 0.0781 mg/kg SC, inf 0.250 hr, PH20 6000 U): 19.2 h
- half-life (human, Subj 74, ZA 0.0794 mg/kg SC, inf 0.250 hr, PH20 6000 U): 23.7 h
- Zoledronic Acid Concentration (ZA 0.25 mg SC infusion + 24000 Units rHuPH20, 0 h post infusion, individual subjects, listed as Zoledronic Acid): 4.69 ng/mL
- Zoledronic Acid Concentration (ZA 0.25 mg SC infusion + 24000 Units rHuPH20, 10 min post infusion, individual subjects, listed as Zoledronic Acid): 4.97 ng/mL and 4.87 ng/mL
- Zoledronic Acid Concentration (ZA 0.25 mg SC infusion + 24000 Units rHuPH20, 0.5 h post infusion, individual subjects, listed as Zoledronic Acid): 5.17 ng/mL and 6.25 ng/mL
- Zoledronic Acid Concentration (ZA 0.25 mg SC infusion + 24000 Units rHuPH20, 1 h post infusion, individual subjects, listed as Zoledronic Acid): 5.67 ng/mL and 6.60 ng/mL
- Zoledronic Acid Concentration (ZA 0.25 mg SC infusion + 24000 Units rHuPH20, 2 h post infusion, individual subjects, listed as Zoledronic Acid): 4.33 ng/mL and 5.44 ng/mL
- Zoledronic Acid Concentration (ZA 0.25 mg SC infusion + 24000 Units rHuPH20, 4 h post infusion, individual subjects, listed as Zoledronic Acid): 3.45 ng/mL and 3.06 ng/mL
- Zoledronic Acid Concentration (ZA 0.25 mg SC infusion + 24000 Units rHuPH20, 6 h post infusion, individual subjects, listed as Zoledronic Acid): 2.02 ng/mL and 1.35 ng/mL
- Zoledronic Acid Concentration (ZA 0.25 mg SC infusion + 24000 Units rHuPH20, 8 h post infusion, individual subjects, listed as Zoledronic Acid): 1.11 ng/mL and 0.79 ng/mL
- Zoledronic Acid Concentration (ZA 0.25 mg SC infusion + 24000 Units rHuPH20, 12 h post infusion, individual subjects): BLQ < (0.500) ng/mL
- Mean Conc. [1]: BLQ
- Median Conc. [1]: BLQ
- Zoledronic Acid Concentration (ZA 0.25 mg SC infusion + 24000 Units rHuPH20, 24 h post infusion, individual subjects): BLQ < (0.500) ng/mL
- Mean Conc. [2]: BLQ
- Median Conc. [2]: BLQ
- Zoledronic Acid Concentration (ZA 0.25 mg SC infusion + 24000 Units rHuPH20, 48 h post infusion, individual subjects): BLQ < (0.500) ng/mL
- Mean Conc. [3]: BLQ
- Median Conc. [3]: BLQ
- Zoledronic Acid Concentration (ZA 0.5 mg SC infusion + 24000 Units rHuPH20, 0 h post infusion, individual subjects, listed as Zoledronic Acid): 13.60 ng/mL
